Reference: patent publication EP4154878A1, “APPLICATION OF ACTIVE […] ROOT OF […] OR PHARMACEUTICALLY ACCEPTABLE SALT THEREOF IN PREPARING ANTIVIRAL DRUG” (priority 2020, dated 2021)
Read-outs that look alike come from different tables or passages of the source.

Legend:
Type in all cases: cell-based
SARS-CoV-2 = assay: microbe, parasite or virus in culture; details: read-out: half effective concentration EC50 on activity of SARS-CoV-2
cell 293T/ACE2 = assay: Cytotoxicity detection (CCK-8), cell 293T/ACE2; details: 48 hours
Experimental: (§1) • 1. Method: • 1) Cell inoculation: Cells Vero-E6 and 293T/ACE2 in a logarithmic growth period were taken, cell densities thereof were adjusted to 1^∗10^4 cells/well, and 100 µL/well thereof were respectively inoculated on a 96-well plate and cultured overnight. • 2) Drug concentration design: Before administration, a drug was diluted to nine concentration gradients with a DMEM medium containing fetal bovine serum of 2% of a total volume twice multiple proportions, and an initial concentration of the drug was set to 200 µM (200, 100, 50, 25, 12.5, 6.25, 3.125, 1.5625, 0.78125 µM), and 100 µL per well of a diluted drug was taken to be added into the cells Vero-E6 and 293T/ACE2 in the 96-well plate in 1), with a final volume of 200 µL per well. Triplicate wells were set for each drug concentration. A DMSO solvent treatment group was used as a blank control. • 3) Absorbance detection: After incubation in an incubator for 48 hours, 10 µL of a CCK-8 working solution was added into each well, and incubation continued to be conducted in the incubator for 3 hours. The absorbance at 450 nm was measured by a microplate reader. • 4) According to measured OD values, survival rates of the cells Vero-E6 and 293T/ACE2 under the action of various concentrations of the drug were calculated respectively compared with the control group. • 2.
• 1. Method: • 1) Cell inoculation: Cells Vero-E6 and 293T/ACE2 in a logarithmic growth period were taken, cell densities thereof were adjusted to 1^∗10^4 cells/well, and 100 µL/well thereof were respectively inoculated on a 96-well plate and cultured overnight in a 37°C cell incubator. • 2) Drug concentration design: Before administration, a drug was diluted to eight concentration gradients with a DMEM medium containing fetal bovine serum of 2% of a total volume twice multiple proportions. Cell Vero-E6: an initial concentration was set to 200 µM (200, 100, 50, 25, 12.5, 6.25, 3.125, 1.5625 µM), and 100 µL per well of a diluted drug was taken to be added into the cell Vero-E6 in the 96-well plate in 1), with a final volume of 200 µL per well. Triplicate wells were set for each drug concentration. A DMSO solvent treatment group was used as a blank control. […] A DMSO solvent treatment group was used as a blank control. • 3) Absorbance detection: After incubation in an incubator for 48 hours, 10 µL of a CCK-8 working solution was added into each well, and incubation continued to be conducted in the incubator for 3 hours. The absorbance at 450 nm was measured by a microplate reader. • 4) According to measured OD values, survival rates of the cells Vero-E6 and 293T/ACE2 under the action of various concentrations of the drug were calculated respectively compared with the control group. […]

SARS-CoV-2 pseudovirus = assay: microbe, parasite or virus in culture; details: Severe acute respiratory syndrome-related coronavirus, 293T/ACE2, 48 h, read-out: half inhibitory concentration IC50 to inhibit entering of the SARS-CoV-2 pseudovirus into a target cell
cell Vero-E6 = assay: Cytotoxicity detection (CCK-8), cell Vero-E6; details: for toxic effect on the cell Vero-E6: 48 hours, CCK-8; for cytotoxicity: within the effective concentration range, cell not named
Experimental: as §1
• 1. Method: • 1) Cell inoculation: Cells Vero-E6 and 293T/ACE2 in a logarithmic growth period were taken, cell densities thereof were adjusted to 1^∗10^4 cells/well, and 100 µL/well thereof were respectively inoculated on a 96-well plate and cultured overnight in a 37°C cell incubator. • 2) Drug concentration design: Before administration, a drug was diluted to eight concentration gradients with a DMEM medium containing fetal bovine serum of 2% of a total volume twice multiple proportions. Cell Vero-E6: an initial concentration was set to 200 µM (200, 100, 50, 25, 12.5, 6.25, 3.125, 1.5625 µM), and 100 µL per well of a diluted drug was taken to be added into the cell Vero-E6 in the 96-well plate in 1), with a final volume of 200 µL per well. Triplicate wells were set for each drug concentration. A DMSO solvent treatment group was used as a blank control. Cell 293T/ACE2: an initial concentration was set to 100 µM (100, 50, 25, 12.5, 6.25, 3.125, 1.5625, 0.78125 µM), and 100 µL per well of a diluted drug was taken to be added into the cell 293T/ACE2 in the 96-well plate in 1), with a final volume of 200 µL per well. Triplicate wells were set for each drug concentration. A DMSO solvent treatment group was used as a blank control. • 3) Absorbance detection: After incubation in an incubator for 48 hours, 10 µL of a CCK-8 working solution was added into each well, and incubation continued to be conducted in the incubator for 3 hours. The absorbance at 450 nm was measured by a microplate reader. • 4) According to measured OD values, survival rates of the cells Vero-E6 and 293T/ACE2 under the action of various concentrations of the drug were calculated respectively compared with the control group.
• 1. Method: • 1) Cell inoculation: Cells Vero-E6 and 293T/ACE2 in a logarithmic growth period were taken, cell densities thereof were adjusted to 1^∗10^4 cells/well, and 100 µL/well thereof were respectively inoculated on a 96-well plate and cultured overnight. • 2) Drug concentration design: Before administration, a drug was diluted to nine concentration gradients with a DMEM medium containing fetal bovine serum of 2% of a total volume twice multiple proportions, and an initial concentration was set to 200 µM (200, 100, 50, 25, 12.5, 6.25, 3.125, 1.5625, 0.78125 µM), and 100 µL per well of a diluted drug was taken to be added into the cells Vero-E6 and 293T/ACE2 in the 96-well plate in 1), with a final volume of 200 µL per well. Triplicate wells were set for each drug concentration. […]

[1] = Severe acute respiratory syndrome coronavirus 2, Vero C1008, 24 h
[2] = at 100 µM and within an effective concentration range
[3] = at 200 µM and within an effective concentration range

## O=C(/C=C/c1ccc(O)c2c1[C@H](C(=O)O[C@H](Cc1ccc(O)c(O)c1)C(=O)O)[C@@H](c1ccc(O)c(O)c1)O2)O[C@H](Cc1ccc(O)c(O)c1)C(=O)O [salvianolic acid B]
SARS-CoV-2; [1]
  EC50: 55500 nM
Cell 293T/ACE2; [2]
  toxic effect on the cell 293T/ACE2: no obvious toxic effect
SARS-CoV-2 pseudovirus
  IC50: 416 nM
Cell Vero-E6; [3]
  toxic effect on the cell Vero-E6: no obvious toxic effect
Cell Vero-E6
  cytotoxicity: no obvious cytotoxicity

## O=C(/C=C/c1ccc(O)c2oc(-c3ccc(O)c(O)c3)cc12)O[C@H](Cc1ccc(O)c(O)c1)C(=O)O [salvianolic acid C]
SARS-CoV-2; [1]
  EC50: 3410 nM
Cell 293T/ACE2; [3]
  toxic effect on the cell 293T/ACE2: no obvious toxic effect
SARS-CoV-2 pseudovirus
  IC50: 5900 nM
Cell Vero-E6; [3]
  toxic effect on the cell Vero-E6: no obvious toxic effect
Cell Vero-E6
  cytotoxicity: no obvious cytotoxicity

## O=C(O)[C@H](O)Cc1ccc(O)c(O)c1 [salvianic acid A]
SARS-CoV-2; [1]
  EC50: 1070 nM
Cell 293T/ACE2; [3]
  toxic effect on the cell 293T/ACE2: no obvious toxic effect
SARS-CoV-2 pseudovirus
  IC50: 2700 nM
Cell Vero-E6; [3]
  toxic effect on the cell Vero-E6: no obvious toxic effect
Cell Vero-E6
  cytotoxicity: no obvious cytotoxicity

## C[C@H]1COC2=C1C(=O)C(=O)c1c2ccc2c1CCCC2(C)C [cryptotanshinone, Cryptotanshinone]
SARS-CoV-2; [1]
  EC50: 1460 nM
Cell Vero-E6; [2]
  toxic effect on the cell Vero-E6: no obvious toxic effect
Cell Vero-E6
  cytotoxicity: no obvious cytotoxicity

## Cc1cccc2c3c(ccc12)C1=C(C(=O)C3=O)[C@@H](C)CO1 [dihydrotanshinone I]
SARS-CoV-2; [1]
  EC50: 640 nM
Cell 293T/ACE2; at 2.5 µM and within an effective concentration range
  toxic effect on the cell 293T/ACE2: no obvious toxic effect
SARS-CoV-2 pseudovirus
  IC50: 680 nM
Cell Vero-E6; at 10 µM and within an effective concentration range
  toxic effect on the cell Vero-E6: no obvious toxic effect
Cell Vero-E6
  cytotoxicity: no obvious cytotoxicity

## Cc1coc2c1C(=O)C(=O)c1c-2ccc2c(C)cccc12 [Tanshinone I]
SARS-CoV-2
  EC50: 2980 nM
Cell Vero-E6; [2]
  toxic effect on the cell Vero-E6: no obvious toxic effect
Cell Vero-E6
  cytotoxicity: no obvious cytotoxicity
